This is an account of results in US8563593B2, “Formulations of (R)-1-(2,2-difluorobenzo[D] [1,3] dioxol-5-yl)-N-(1-(2,3-dihydroxypropyl)-6-fluoro-2-(1-hydroxy-2-methylpropan-2-yl)-1H-indol-5-yl)cyclopropanecarboxamide” (Vertex Pharmaceuticals Incorporated, priority 2010, dated 2013).

One data set has as its target T1, ΔF508-CFTR (Homo sapiens, UniProt P13569, DEL508-508).
T1 construct: expressed in transfected cells
The data set can be described thus: Assays for detecting and measuring ΔF508-CFTR correction properties (membrane potential optical assay). Type of data set: cell-based. The settings on record: PercentActivity; NIH3T3 mouse fibroblasts stably expressing ΔF508-CFTR. The source says: Assays for Detecting and Measuring ΔF508-CFTR Correction Properties of Compounds
Membrane Potential Optical Methods for Assaying ΔF508-CFTR Modulation Properties of Compounds
The optical membrane potential assay utilized voltage-sensitive FRET sensors described by Gonzalez and Tsien (See Gonzalez, J. E. and R. Y. Tsien (1995) “Voltage sensing by fluorescence resonance energy transfer in single cells” Biophys J 69(4): 1272-80, and Gonzalez, J. E. and R. Y. Tsien (1997) “Improved indicators of cell membrane potential that use fluorescence resonance energy transfer” Chem Biol 4(4): 269-77) in combination with instrumentation for measuring fluorescence changes such as the Voltage/Ion Probe Reader (VIPR) (See, Gonzalez, J. E., K. Oades, et al. (1999) “Cell-based assays and instrumentation for screening ion-channel targets” Drug Discov Today 4(9): 431-439).
These voltage sensitive assays are based on the change in fluorescence resonant energy transfer (FRET) between the membrane-soluble, voltage-sensitive dye, DiSBAC2(3), and a fluorescent phospholipid, CC2-DMPE, which is attached to the outer leaflet of the plasma membrane and acts as a FRET donor. […] The changes in fluorescence emission were monitored using VIPR™ II, which is an integrated liquid handler and fluorescent detector designed to conduct cell-based screens in 96- or 384-well microtiter plates. […]

Data set [1] is described as follows: Solubility of Compound 1 with and without PEG cosolvent and vitamin E TPGS. The data set is classed as physicochemical. The source says:
The PEG cosolvent and vitamin E TPGS induced micelle formation increase Compound 1 solubility from 7 micrograms to several milligrams per g of solution.

T1 sequence (P13569 with tags, fused parts or gaps DEL508-508): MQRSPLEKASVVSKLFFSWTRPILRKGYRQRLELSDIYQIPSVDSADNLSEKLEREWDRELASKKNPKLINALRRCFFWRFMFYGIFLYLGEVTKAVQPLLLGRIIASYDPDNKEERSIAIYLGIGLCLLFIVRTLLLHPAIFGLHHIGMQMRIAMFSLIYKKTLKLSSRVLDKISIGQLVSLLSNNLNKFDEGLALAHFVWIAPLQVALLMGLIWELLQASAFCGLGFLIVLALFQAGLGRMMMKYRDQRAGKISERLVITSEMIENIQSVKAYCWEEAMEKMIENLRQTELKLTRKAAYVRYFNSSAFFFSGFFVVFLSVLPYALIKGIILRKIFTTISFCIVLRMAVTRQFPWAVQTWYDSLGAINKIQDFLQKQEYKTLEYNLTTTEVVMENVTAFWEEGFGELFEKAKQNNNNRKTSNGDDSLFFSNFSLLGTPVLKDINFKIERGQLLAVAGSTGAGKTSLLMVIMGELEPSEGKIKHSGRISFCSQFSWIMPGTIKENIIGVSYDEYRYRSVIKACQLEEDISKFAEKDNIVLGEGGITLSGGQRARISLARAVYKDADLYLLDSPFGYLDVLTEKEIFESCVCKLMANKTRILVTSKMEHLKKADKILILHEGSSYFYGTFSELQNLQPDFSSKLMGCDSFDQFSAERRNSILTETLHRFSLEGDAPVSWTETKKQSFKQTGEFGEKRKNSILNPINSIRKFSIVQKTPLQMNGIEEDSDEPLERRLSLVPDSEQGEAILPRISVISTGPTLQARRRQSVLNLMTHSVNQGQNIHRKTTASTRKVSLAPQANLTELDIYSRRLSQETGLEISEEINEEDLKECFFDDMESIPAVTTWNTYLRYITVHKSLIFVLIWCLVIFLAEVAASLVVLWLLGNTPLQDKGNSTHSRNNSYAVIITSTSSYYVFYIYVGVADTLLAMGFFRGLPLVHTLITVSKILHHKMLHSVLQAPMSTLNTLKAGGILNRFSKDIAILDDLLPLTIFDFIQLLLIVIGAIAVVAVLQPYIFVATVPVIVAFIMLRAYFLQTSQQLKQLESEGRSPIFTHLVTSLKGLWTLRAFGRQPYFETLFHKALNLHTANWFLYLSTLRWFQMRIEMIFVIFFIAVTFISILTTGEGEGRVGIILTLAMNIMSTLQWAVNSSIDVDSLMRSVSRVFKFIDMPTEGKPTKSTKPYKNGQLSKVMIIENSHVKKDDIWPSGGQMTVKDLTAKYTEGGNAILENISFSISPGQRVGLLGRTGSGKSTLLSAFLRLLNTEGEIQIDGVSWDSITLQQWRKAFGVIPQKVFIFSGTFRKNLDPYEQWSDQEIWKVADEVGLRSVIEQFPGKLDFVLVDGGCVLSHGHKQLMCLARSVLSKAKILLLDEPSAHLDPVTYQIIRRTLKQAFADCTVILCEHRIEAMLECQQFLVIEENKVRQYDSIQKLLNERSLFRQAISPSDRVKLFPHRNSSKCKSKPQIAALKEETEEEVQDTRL

`CC(C)(CO)c1cc2cc(NC(=O)C3(c4ccc5c(c4)OC(F)(F)O5)CC3)c(F)cc2n1C[C@@H](O)CO` [Compound 1, (R)-1-(2,2-difluorobenzo[d][1,3]dioxol-5-yl)-N-(1-(2,3-dihydroxypropyl)-6-fluoro-2-(1-hydroxy-2-methylpropan-2-yl)-1H-indol-5-yl)cyclopropanecarboxamide]: the “Binned MaxEfficacy” value on ΔF508-CFTR is “+++ (PercentActivity Bins: + <= 25.0 < ++ <= 100.0 < +++)”. Also, the “Compound 1 solubility” value is recorded as “several” in data set [1] (with PEG cosolvent and vitamin E TPGS induced micelle formation); 7 micrograms per g of solution in data set [1] (without PEG cosolvent and vitamin E TPGS).
